According to US10870638B2, “Pyridazinone compound or its salt, and herbicide containing it” (ISHIHARA SANGYO KAISHA, LTD., priority 2016, dated 2020):

How the values were obtained:
Assay type in all cases: in vivo
Details in all cases: active ingredient amount 31 g/ha, 14th day after application
[1] = tested on: crabgrass (Digitaris sanquinalis L.); assay: Test Example 2: soil application on the day after sowing, growth inhibition rate on 14th day
Outline: (§1)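 Herbicidal effect is assessed on pot-grown plants after a soil spray applied the day after sowing at prescribed active ingredient rates. Scoring occurs visually at day 14 as growth inhibition (%).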

[2] = tested on: velvetleaf (Abutilon theophrasti MEDIC.); assay: as above
Outline: as §1

[3] = tested on: soybean (Glycine max Merr.); assay: as above
Outline: as §1

[4] = tested on: prickly sida (Sida spinosa L.); assay: as above
Outline: as §1

[5] = tested on: wheat (Triticum aestivum L.); assay: as above
Outline: as §1

[6] = tested on: redroot pigweed (Amaranthus retroflexus L.); assay: as above
Outline: as §1

[7] = tested on: barnyardgrass (Echinochloa crus-qalli L.); assay: as above
Outline: as §1

[8] = tested on: green foxtail (Setaria viridis L.); assay: as above
Outline: as §1

rice (Oryza sativa L.) [9] = assay: as above
Outline: as §1

corn (Zea mays L.) [10] = assay: as above
Outline: as §1

[11] = tested on: italian ryegrass (Lolium multiflorum Lam.); assay: Test Example 1: foliar treatment, growth inhibition rate on 14th day
Outline: (§2)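 Using a small sprayer, formulated compound in water (0.1 vol % surfactant, 1,000 L/ha) was applied to seedlings grown from seed in upland soil. Fourteen days on, growth state was observed and expressed as percent inhibition from 0 to 100.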

[12] = tested on: wild oat (Avena fatua L.); assay: as above
Outline: as §2

[13] = tested on: soybean (Glycine max Merr.); assay: as above
Outline: as §2

[14] = tested on: wheat (Triticum aestivum L.); assay: as above
Outline: as §2

[15] = tested on: redroot pigweed (Amaranthus retroflexus L.); assay: as above
Outline: as §2

[16] = tested on: barnyardgrass (Echinochloa crus-qalli L.); assay: as above
Outline: as §2

[17] = tested on: green foxtail (Setaria viridis L.); assay: as above
Outline: as §2

rice (Oryza sativa L.) [18] = assay: as above
Outline: as §2

[19] = tested on: crabgrass (Digitaria sanquinalis L.); assay: as above
Outline: as §2

corn (Zea mays L.) [20] = assay: as above
Outline: as §2

Row | Structure (SMILES) | Growth inhibition rate (%) Crabgrass [1] | Growth inhibition rate (%) Velvetleaf [2] | Growth inhibition rate (%) Soybean [3] | Growth inhibition rate (%) Prickly sida [4] | Growth inhibition rate (%) Wheat [5] | Growth inhibition rate (%) Redroot pigweed [6] | Growth inhibition rate (%) Barnyardgrass [7] | Growth inhibition rate (%) Green foxtail [8] | Growth inhibition rate (%) Rice (rice (Oryza sativa L.) [9]) | Growth inhibition rate (%) Corn (corn (Zea mays L.) [10]) | Growth inhibition rate (%) Italian ryegrass [11] | Growth inhibition rate (%) Wild oat [12] | Growth inhibition rate (%) Soybean [13] | Growth inhibition rate (%) Wheat [14] | Growth inhibition rate (%) Redroot pigweed [15] | Growth inhibition rate (%) Barnyardgrass [16] | Growth inhibition rate (%) Green foxtail [17] | Growth inhibition rate (%) Rice (rice (Oryza sativa L.) [18]) | Growth inhibition rate (%) Crabgrass [19] | Growth inhibition rate (%) Corn (corn (Zea mays L.) [20])
1 | Cc1ccc(Oc2ncc(C(F)(F)F)cc2Br)cc1-c1c(O)c(C)nn(C)c1=O [Compound 2-83] | 100% | 0% | 0% | 75% | 0% | 100% | 99% | 100% | 30% | 0% | 80% | 88% | 0% | 10% | 0% | 99% | 99% | 0% | 98% | 60%
2 | Cc1ccc(Oc2nc3ccc(Br)cc3s2)cc1-c1c(O)c(C)nn(C)c1=O [Compound 2-156] | 75% | 0% | 0% | 0% | 0% | 0% | 83% | 98% | 15% | 0% | 30% | 10% | 0% | 0% | 0% | 98% | 98% | 0% | 93% | 0%
3 | CCc1ccc(Oc2nc3ccc(Cl)cc3o2)cc1-c1c(OC(C)=O)c(C)nn(C)c1=O [Compound 2-159] | 98% | 0% | 0% | 0% | 0% | 0% | 100% | 99% | 0% | 0% | 100% | 100% | 35% | 99% | 0% | 100% | 100% | 100% | 100% | 100%
4 | Cc1ccc(Oc2nc3cc(Cl)ccc3o2)cc1-c1c(O)cnn(C)c1=O [Compound 2-173] | 80% | 0% | 0% | 0% | 0% | 0% | 65% | 10% | 20% | 10% | 90% | 35% | 0% | 75% | 0% | 99% | 88% | 85% | 95% | 65%
5 | CCc1ccc(Sc2ncc(C(F)(F)F)cc2Cl)cc1-c1c(OC(C)=O)c(C)nn(C)c1=O [1-46] | 90% | 0% | 0% | 0% | 30% | 0% | 80% | 99% | 30% | 0% | 99% | 100% | 0% | 98% | 30% | 100% | 100% | 80% | 100% | 98%
6 | CCc1ccc(Oc2nc3ccc(Cl)cc3s2)cc1-c1c(O)c(C)nn(C)c1=O [Compound 2-150] | 90% | 0% | 0% | 75% | 0% | 100% | 100% | 98% | 0% | 0% | 98% | 50% | 0% | 75% | 0% | 100% | 98% | 30% | 60% | 30%
7 | CCn1ncc(OC(C)=O)c(-c2cc(Oc3nc4ccc(Cl)cc4o3)ccc2C)c1=O [Compound 2-169] | 98% | 0% | 0% | 0% | 0% | 0% | 70% | 98% | 0% | 0% | 85% | 88% | 40% | 85% | 0% | 100% | 100% | 83% | 100% | 98%
